Reference: patent US12403132B2, “Methods of treating bone marrow failure syndromes and compositions for use in the same” (The Board of Trustees of the Leland Stanford Junior …, priority 2020, dated 2025)
Values joined by “and” are separate entries in the source; they are usually repeats but may differ in a detail not shown here. Equal entries are not always repeated.

Experiments:
Ter119+ erythroblasts = assay: Ter119+ erythroblast expansion from murine Lin-Kit+ HSPCs (tet-shRPS19, RPL11+/lox); assay type: cell-based, mouse
Method: FIG. 8. NLK inhibition increases expansion of erythroid progenitors from human and murine models of DBA. Human cord blood CD34+ progenitors were transduced with lentivirus co-expressing GFP with shRNA against luciferase (shLuc), RPS19 (shRPS19) or RPL11 (shRPL11). After 36 hours cells GFP+ cells were differentiated in erythroid media in the presence or absence of 5 μM SD208 for 15 days. Cells were counted and assessed for cell surface expression of CD235. (a) The percentage of CD235+ cells was multiplied by the cell count and values were compared as a percentage of untreated controls. (b) Normalizing values relative to untreated RPS19-insufficiency progenitors facilitates direct comparison of erythropoiesis between untreated and SD208-treated cultures. (c) Approximately 3000 cells were removed from differentiating treatments at day 6 and NLK activity was assessed. Values were normalized to reflect a fold induction relative to untreated controls. (d) Lin-Kit+ hematopoietic progenitors were obtained from three mouse embryos expressing tetracycline-inducible shRNA against RPS19 at day E14.5 or three untreated mice, and thee mature RPL11^+/+ or three mature RPL11^+/lox mice treated with tamoxifen for eight weeks. Cells were grown in the presence or absence of doxycycline and/or SD208 for eight days prior to counting and assessing for ter119 surface expression. Values were expressed as a percentage relative to untreated controls (e) and directly comparing the effect of SD208 on erythropoiesis in ribosomal-insufficiency by expressing values relative to untreated ribosome-insufficient cultures (f). At day 5 approximately 3000 cells were assayed for NLK kinase assay (g). CD34+ HSPCs were isolated from three healthy control and three DBA patient mononuclear bone marrow aspirates by magnetic bead sorting and differentiated in the presence or absence of SD208 for 14 days. After counting the total cell population, the ratio of CD235+ erythroblasts was determined by flow cytometry and number of CD235+ erythroblasts calculated. This was expressed as a percentage of the average number of erythroid cells present in untreated healthy controls. (h) The direct effect of SD208 on erythroid expansion in DBA patient samples was calculated following normalization of untreated DBA patient samples as 1-fold, (i) At day five, 3000 cells from each of the differentiating cultures was analyzed for NLK activity by kinase assay and are expressed as a fold induction relative to untreated healthy controls.
FIG. 11. Metformin improves erythropoiesis in zebrafish model of DBA but not murine models. (Panel A, left portion) Murine fetal liver Kit+ progenitors expressing tetracycline-regulatable shRNA against RPS19 were cultured in the absence (grey columns) or presence (black columns) of doxycycline either alone, or treated with metformin. After 8 days, the number of ter119+ erythroblasts were calculated. (A right) RPL11+/lox mice were left untreated (grey columns) or treated (black columns) with tamoxifen for 5 weeks prior to isolation of bone marrow Lin-Kit+ progenitors. Progenitors were differentiated in the presence or absence of metformin for 8 days before assessing the number of Ter119+ erythroblasts. (Panel B) In conjunction with flow cytometry, cultures were subjected to qRT-PCR for NLK expression and (Panel C) kinase NLK kinase activity was assessed by in vitro kinase assay. […]

CD11b+ myeloid cells = assay: CD11b+ myeloid expansion of differentiating human cord blood CD34+ progenitors; assay type: cell-based
Method: FIG. 7. SD208 increases erythroid expansion in human model of DBA through inhibition of NLK and not TGFβ. (a) Differentiating cord blood CD34+ progenitors were transduced with shRNA against luciferase or RPS19 and treated with inhibitors at working concentrations for TGFβ inhibition every three days. Cells were counted and CD235+ erythroid cells were assessed by flow cytometry after 15 days. (b) Prior to flow cytometry, 5000 cells per group were taken from differentiating cultures for NLK kinase assay. (c) CD34+ progenitors were transduced with shRNA against luciferase or RPS19 and non-targeting or siRNA against NLK. After sorting, samples were split into two groups and either treated with vehicle or SD208 every three days. After 15 days cells were counted and subject to flow cytometry to compare the expansion of maturing CD235+ erythroid (left panel) and CD11b+ myeloid cells (right panel). […] Cells were counted and CD235+ erythroid (D—upper) and CD11b+ myeloid cell (D—lower) percentages were determined by flow cytometry. The number of erythroid or myeloid cells is expressed as a percentage of the number of that lineage with no cytokine or drug treatment.
FIG. 9. […] Cells were counted and the percentage expressing CD235+ erythroid (left) and CD11b+ myeloid (right) was determined by flow cytometry. […] Values are expressed as a fold induction relative to untreated. (Panel C) Transduced and sorted CD34+ progenitors were cultured in methylcellulose in the presence or absence of metformin for 16 days and BFU-E erythroid (left) and CFU-GM myeloid (right) colonies scored. […] To directly compare the effect of metformin in each group, metformin-treated cultures were normalized to untreated cultures and are expressed as a fold induction of the untreated control. […]
Cells were incubated with human Fc receptor binding inhibitor (#14-9161-73; eBioscience) followed by primary antibodies CD235-APC (#306607; BioLegend) and CD11b-PE/Cy5 (#101209; BioLegend). Data were collected on a DxP10 flow cytometer (Cytek) and analyzed by using FlowJo Software, v.9.7.2.

Fc1ccc(Cl)cc1-c1nc(Nc2ccncc2)c2nccnc2n1 [SD208]
erythropoiesis, % of controls (Ter119+ erythroblasts; RPL11+/lox bone marrow HSPCs of three mice, SD208, 8 days, 31.2, 26.4, 18.6% without SD208): 57.3% and 56.8% and 50.3% | fold increase of erythropoiesis in response to SD208 (Ter119+ erythroblasts; murine RPL11-insufficiency): 2.29 fold | fold increase of erythropoiesis in response to SD208 (Ter119+ erythroblasts; murine RPS19-insufficiency): 3.88 fold | Ter119+ erythroblasts, % of populations differentiated without doxycycline (Ter119+ erythroblasts; tet-shRPS19 fetal liver HSPCs of three mice, doxycycline + SD208, 8 days, 24.3, 20.3, 18.5% without SD208): 83.2% and 81.1% and 76.6%

CC(C)=CCC[C@](C)(O[C@@H]1O[C@H](CO[C@@H]2O[C@H](CO)[C@@H](O)[C@H](O)[C@H]2O)[C@@H](O)[C@H](O)[C@H]1O)[C@H]1CC[C@]2(C)[C@@H]1[C@H](O)C[C@@H]1[C@@]3(C)CC[C@H](O[C@@H]4O[C@H](CO)[C@@H](O)[C@H](O)[C@H]4O[C@@H]4O[C@H](CO)[C@@H](O)[C@H](O)[C@H]4O)C(C)(C)[C@@H]3CC[C@]12C [ginsenoside Rb1]
impact on CD11b+ myeloid expansion (CD11b+ myeloid cells; control or RPS19-insufficiency): did not impact

CN(C)C(=N)N=C(N)N [metformin]
influence on CD11b+ expansion (CD11b+ myeloid cells; 50 mM metformin): negligible influence | rescue of Ter119+ erythroblast expansion (Ter119+ erythroblasts; murine RPS19- or RPL11-insufficiency, metformin, 8 days): did not rescue
